Experimental data as given in PubChem BioAssay AID2060505 (Molecular Pharmacology Branch, DTP, NCI, 2025).
pIC50: −log10 of the molar value.

System: 633275-114-R-J1-PDC complex spheroids, viability
Experiment: Anticancer human tumor 633275-114-R-J1-PDC patient-derived endometrial adenocarcinoma cell line growth inhibition [GQUAD]
Settings: for pIC50: curve of first compound; for viability, T/C: stronger effect = lower value
Description: DNA G-quadruplex Stabilizer Agents in Combinations in Complex Spheroids
A high-throughput screen of multi-cell type tumor spheroids was designed to identify active combinations of DNA G-quadruplex stabilizer agents and targeted small molecules. Complex spheroids include a stromal component modeled by human endothelial cells (HUVEC) and fibroblasts modeled by human mesenchymal stem cells (MSCs). The concentration ranges selected for each drug and investigational agent were based upon clinically achievable concentrations if the clinical Cmax of the agent was known.
Compounds. The drugs and investigational agents: pidnarulex (CX-5461; NSC782164), APTO-253 (NSC789042), BRACO-19 (NSC847499), peposertib (NSC802822), ceralasertib (NSC780249), elimusertib (NSC800525), camonsertib (NSC841442), AZD-1390 (NSC803789), olaparib (NSC753686), talazoparib (NSC767125), ART-558 (NSC835418), sotorasib (NSC818433), MRTX-1133 (NSC836407), SN-38 (NSC673596), topotecan (NSC609699), etoposide (NSC141540), doxorubicin (NSC123127), gemcitabine (NSC613327), 5-fluorouracil (NSC19893), paclitaxel (NSC125973), vemurafenib (NSC761431), panobinostat (NSC761190), R-306465 (JNJ-16241199; NSC773264), adavosertib (NSC754352), TP-3654 (NSC805149), carboplatin (NSC241240), KSQ-4279 (NSC840948), and staurosporine (NSC755774) were obtained from the National Cancer Institute (NCI) Developmental Therapeutics Program Chemical Repository (34). The FDA-approved anticancer drug set is available from the NCI Developmental Therapeutics Program. […] The stock solutions were prepared in dimethyl sulfoxide (DMSO, Sigma-Aldrich, St. Louis, MO, cat. D2650) at 800-fold the tested concentration and stored at -70 degrees C prior to their use. All drugs and investigational agents were tested over a range starting from a high concentration at or near the clinical Cmax and decreasing in half-log increments. If the clinical Cmax for an agent had not been determined, the highest concentration tested was 10 microM.
2.3 Cell Culture. All cells were maintained in an incubator at 37 degrees C and 5% CO2 with 95% humidity. The PDC lines were cultured according to standard operating procedures established by the NCI PDMR. All PDCs were thawed and cultured in Matrigel-coated flasks prepared with a working solution of 1X Ham's F-12 nutrient mix, without supplementation (Invitrogen, cat. 11765054), 100 U/mL penicillin-streptomycin (Invitrogen, cat. 15140122), and 2.5% Matrigel (Corning Inc., cat. 354248) for the first three passages. The 857933-349-R-J2-PDC line was cultured in 6C/Colon 1B media, which includes advanced DMEM/F-12 (Thermo Fisher Scientific, cat. 12634028), 10 mM HEPES (Thermo Fisher Scientific, cat. 15630080), 1X GlutaMAX supplement (Thermo Fisher Scientific, cat. 35050061), 0.1 mg/mL primocin (InvivoGen, cat. ant-pm-2), 10% defined fetal bovine serum, heat inactivated (HyClone Laboratories Inc., cat. SH30070.03HI), 50% L-WRN conditioned media (ATCC, cat. CRL-3276), 1.25 mM N-Acetyl-L-cysteine (Sigma-Aldrich, cat. A9165), 10 mM nicotinamide (Sigma-Aldrich, cat. N0636), 1X B-27 supplement (Thermo Fisher Scientific, cat. 17504044), 1X N-2 supplement (Thermo Fisher Scientific, cat. 17502048), 10 microM Y-27632 dihydrochloride (Tocris Bioscience, cat. 1254), and 50 ng/mL human EGF recombinant protein (Thermo Fisher Scientific, cat. PHG0311). The 485176-168-R4-J1-PDC line was cultured in Panc media, which includes all 6C/Colon 1B media components plus 100 ng/mL human FGF-10 (Thermo Fisher Scientific, cat. 100-26), 500 nM SB-431542 (Selleckchem, cat. S1067), and gastrin (Tocris, cat. 3006).
[…]

[1] = second compound 0.0316 µM, first compound 0.0316 µM
[2] = second compound 0.0316 µM, first compound 0.1 µM
[3] = second compound 0.0316 µM, first compound 0.316 µM
[4] = second compound 0.0316 µM, first compound 1 µM
[5] = second compound 0.0316 µM, first compound 3.16 µM
[6] = second compound 0.0316 µM, first compound 10 µM
[7] = second compound 0.1 µM, first compound 0.0316 µM
[8] = second compound 0.1 µM, first compound 0.1 µM
[9] = second compound 0.1 µM, first compound 0.316 µM
[10] = second compound 0.1 µM, first compound 1 µM
[11] = second compound 0.1 µM, first compound 3.16 µM
[12] = second compound 0.1 µM, first compound 10 µM
[13] = second compound 0.316 µM, first compound 0.0316 µM
[14] = second compound 0.316 µM, first compound 0.1 µM
[15] = second compound 0.316 µM, first compound 0.316 µM
[16] = second compound 0.316 µM, first compound 1 µM
[17] = second compound 0.316 µM, first compound 3.16 µM
[18] = second compound 0.316 µM, first compound 10 µM
[19] = second compound 1 µM, first compound 0.0316 µM
[20] = second compound 1 µM, first compound 0.1 µM
[21] = second compound 1 µM, first compound 0.316 µM
[22] = second compound 1 µM, first compound 1 µM
[23] = second compound 1 µM, first compound 3.16 µM
[24] = second compound 1 µM, first compound 10 µM
[25] = second compound 3.16 µM, first compound 0.0316 µM
[26] = second compound 3.16 µM, first compound 0.1 µM
[27] = second compound 3.16 µM, first compound 0.316 µM
[28] = second compound 3.16 µM, first compound 1 µM
[29] = second compound 3.16 µM, first compound 3.16 µM
[30] = second compound 3.16 µM, first compound 10 µM
[31] = second compound 10 µM, first compound 0.0316 µM
[32] = second compound 10 µM, first compound 0.1 µM
[33] = second compound 10 µM, first compound 0.316 µM
[34] = second compound 10 µM, first compound 1 µM
[35] = second compound 10 µM, first compound 3.16 µM
[36] = second compound 10 µM, first compound 10 µM
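Note: spheroids exposed to the agents for seven days.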
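Throughout, for viability, T/C: percent of DMSO vehicle control viability which is 100%.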

Molecule `O=c1[nH]cc(F)c(=O)[nH]1` + CN(C)c1ccc(Nc2c3ccc(NC(=O)CCN4CCCC4)cc3nc3cc(NC(=O)CCN4CCCC4)ccc23)cc1 has a pIC50 (second compound 0.0316 µM) of less than 5.00, a pIC50 (second compound 0.1 µM) of less than 5.00 and a pIC50 (second compound 0.316 µM) of less than 5.00. It also gave a pIC50 (second compound 1 µM) of less than 5.00, a pIC50 (second compound 3.16 µM) of less than 5.00 and a pIC50 (second compound 10 µM) greater than 7.50. The viability, T/C [1] was 112%, the viability, T/C [2] was 96% and the viability, T/C [3] was 96.9%. For the same molecule, the viability, T/C [4] was 88.1%, the viability, T/C [5] was 88.5% and the viability, T/C [6] was 66%. The viability, T/C [7] was 97.6%, the viability, T/C [8] was 98.8% and the viability, T/C [9] was 91.4%. It also gave a viability, T/C [10] of 96.6%, a viability, T/C [11] of 88.4% and a viability, T/C [12] of 76.5%. For the same molecule, the viability, T/C [13] was 86.9%, the viability, T/C [14] was 90.1% and the viability, T/C [15] was 97.3%. The viability, T/C [16] was 100%, the viability, T/C [17] was 86.2% and the viability, T/C [18] was 66.2%. For the same molecule, the viability, T/C [19] was 79.8%, the viability, T/C [20] was 91.8% and the viability, T/C [21] was 98.9%. For the same molecule, the viability, T/C [22] was 99%, the viability, T/C [23] was 84.9% and the viability, T/C [24] was 64.3%. It also gave a viability, T/C [25] of 83.2%, a viability, T/C [26] of 85.9% and a viability, T/C [27] of 85.2%. The viability, T/C [28] was 74%, the viability, T/C [29] was 77.9% and the viability, T/C [30] was 56.8%. For the same molecule, the viability, T/C [31] was 36%, the viability, T/C [32] was 38.3% and the viability, T/C [33] was 30.2%. The viability, T/C [34] was 33.1%, the viability, T/C [35] was 32.2% and the viability, T/C [36] was 26.4%.
For `CCCS(=O)(=O)Nc1ccc(F)c(C(=O)c2c[nH]c3ncc(-c4ccc(Cl)cc4)cc23)c1F` + Cc1cnc(CNC(=O)c2c(=O)c3ccc(N4CCCN(C)CC4)nc3n3c2sc2ccccc23)cn1, the pIC50 (second compound 0.0316 µM) was 5.27, the pIC50 (second compound 0.1 µM) was 5.42 and the pIC50 (second compound 0.316 µM) was 5.84. For the same molecule, the pIC50 (second compound 1 µM) was greater than 7.50, the pIC50 (second compound 3.16 µM) was greater than 7.50 and the pIC50 (second compound 10 µM) was greater than 7.50. It also gave a viability, T/C [1] of 68.7%, a viability, T/C [2] of 67.6% and a viability, T/C [3] of 72.9%. It also gave a viability, T/C [4] of 77%, a viability, T/C [5] of 69.4% and a viability, T/C [6] of 26.3%. The viability, T/C [7] was 55.9%, the viability, T/C [8] was 53.1% and the viability, T/C [9] was 56.1%. It also gave a viability, T/C [10] of 58.1%, a viability, T/C [11] of 56.4% and a viability, T/C [12] of 20.7%. For the same molecule, the viability, T/C [13] was 49%, the viability, T/C [14] was 53.3% and the viability, T/C [15] was 50.8%. It also gave a viability, T/C [16] of 54%, a viability, T/C [17] of 46.8% and a viability, T/C [18] of 19.3%. For the same molecule, the viability, T/C [19] was 40.7%, the viability, T/C [20] was 43.6% and the viability, T/C [21] was 47.7%. For the same molecule, the viability, T/C [22] was 47.3%, the viability, T/C [23] was 43.3% and the viability, T/C [24] was 13.6%. For the same molecule, the viability, T/C [25] was 37.2%, the viability, T/C [26] was 37.1% and the viability, T/C [27] was 36.7%. For the same molecule, the viability, T/C [28] was 40.3%, the viability, T/C [29] was 40.6% and the viability, T/C [30] was 7.26%. It also gave a viability, T/C [31] of 30.6%, a viability, T/C [32] of 33.1% and a viability, T/C [33] of 34%. It also gave a viability, T/C [34] of 35.9%, a viability, T/C [35] of 27.8% and a viability, T/C [36] of 0.18%.
